Values quoted from earlier work in patent US20250268950A1, “PRENATAL SUPPLEMENT” (Arizona Board of Regents on Behalf of Arizona State …, priority 2021, published 2025).
Read-outs that look alike come from different tables or passages of the source.

Experiments:
[1] = system: non-pregnant women with polycystic ovary syndrome; diabetes
[2] = for plasma level as % of level at 2500 mg: non-pregnant women
[3] = system: pregnant women and their infants; conditions: prenatal with vitamin E and dietary intake in upper half (12.6-33.8 mg/day)
[4] = system: pregnant women and their infants; conditions: maternal blood levels in the highest quartile; 397 ASD, 1034 controls
[5] = diabetes, meta-analysis of 22 randomized controlled trials

O[C@H]1[C@H](O)[C@@H](O)[C@H](O)[C@@H](O)[C@H]1O [Inositol, Myo-inositol]
macrosomia (infants; 4000 mg/day, women at risk of gestational diabetes (vs 5.3%)): 2.1%
preterm birth (infants; 4000 mg/day, women at risk of gestational diabetes (vs. 7.6%)): 3.4%
large for gestational age (infants; 4000 mg/day, women at risk of gestational diabetes (vs. 8.9%)): 4.8%
side effects (high doses up to 18 grams per day): Only some mild diarrhea
side effects (less than 6 grams per day): zero side effects
gestational diabetes (pregnant women; 2000 mg/day, 223 overweight, non-obese pregnant women): significant decrease in gestational diabetes compared to placebo
gestational diabetes (pregnant women; 4000 mg/day, women at risk of gestational diabetes (vs. 25%)): 11%
gestational diabetes (pregnant women; 4 grams per day, at risk women): greatly reduced gestational diabetes (GD)

[Cr] [Chromium]
pregnancy rate ([1]; 200 i.g for eight weeks, non-pregnant women with polycystic ovary syndrome (vs. 3%)): 17%
atypical depression ([1]; 400-600 i.g/day): helpful for atypical depression
adverse events [1, 5]: no difference in the adverse events between chromium and placebo
glycemic control and lipids [1, 5]: improved glycemic control, reduced triglycerides, and increased HDL-C
fasting plasma glucose and insulin levels (pregnant women; 4 i.g/kg, 24 women with gestational diabetes, U.S.): significantly improved their fasting plasma glucose and insulin levels

O=C1O[C@H]([C@@H](O)CO)C(O)=C1O [Vitamin C]
infant pulmonary function and wheezing (infants; 500 mg/day): improved infant pulmonary function and significantly decreased wheezing through age 1 year
maintenance of vitamin C concentrations ([2]; 100 mg supplementation): enough to maintain a constant leukocyte concentration (storage) of vitamin C, but not enough to maintain plasma concentrations
plasma level as % of level at 2500 mg ([2]; steady-state 100 mg/day): approximately 79%
plasma level as % of level at 2500 mg ([2]; steady-state 200 mg/day): ~88%
plasma level as % of level at 2500 mg ([2]; steady-state 400 mg/day): ~95%
plasma level as % of level at 2500 mg ([2]; steady-state 1000 mg/day): ~97%
Tolerable Upper Limit for Pregnant Women (Table 12): 2000 mg
risk of term PROM, RR (pregnant women; Cochrane meta-analysis, vitamin C alone, 170 participants): 0.55
risk of preterm PROM, RR (pregnant women; Cochrane meta-analysis, vitamin C alone, 1282 participants, five studies): 0.66
rate of urinary tract infections during pregnancy (pregnant women; Mexico, 100 mg/day (vs. 29%)): 13%
hospitalization during pregnancy (pregnant women; Uganda, 400 mg (vs. 28% for placebo (so in the source))): 42%

Cc1ncc(CO)c(CO)c1O [Vitamin B6, Pyridoxine]
effect on birth weight (infants; 2 mg): sufficient to improve birth weight
Tolerable Upper Limit for Pregnant Women (Table 12): 100 mg
dental decay during pregnancy (pregnant women; 20 mg/day): significantly reduced the rate of dental decay during pregnancy
symptoms of nausea (pregnant women; 25 mg every 8 hours for 3 days): decrease symptoms of nausea

C=C1CCC(O)CC1=CC=C1CCCC2(C)C1CCC2C(C)CCCC(C)C (stereo not drawn) [Vitamin D]
asthma/recurrent wheeze at 0-3 yrs, adjusted OR (infants; combined analysis of two studies, 2400 IU/day and 4000 IU/day): 0.74
blood levels of vitamin D ([2]; 2000-4000 IU/day): higher blood levels than just 400 IU/day
Tolerable Upper Limit for Pregnant Women (Table 12): 4000 IU
reduction of risk of preeclampsia (pregnant women; 400-600 IU/day during pregnancy, after confounder adjustment): 29%
rate of maternal secondary hyperparathyroidism (pregnant women; 800 IU/day (from 27%)): 10%

chromium picolinate
comparison of chromium forms [1, 5]: the form with the greatest effects on glucose and triglyceride levels

Vitamin E
rate of preterm births (infants; about 450 mg/day (about 675 IU/day), non-randomized (vs. 9.3%)): 6.6%
rate of preterm births in women with preeclampsia (infants; approximately 200-600 mg/day (vs. 10.4% unsupplemented)): 8.6%
risk of congenital heart defects, times higher [3]: 5-9
increase of vitamin E levels by third trimester ([2]; 30 IU, US): 50%
Tolerable Upper Limit for Pregnant Women (Table 12): 1000 mg
risk of placental abruption, RR (pregnant women; Cochrane, alpha-tocopherol 200-800 IU with other supplements, 7 trials, 14,922 participants): 0.64

[Mn+2] [Manganese]
Tolerable Upper Limit for Pregnant Women (Table 18): 11 mg
risk of ASD, OR [4]: 1.84

[Mg] [Magnesium]
perinatal and maternal composite outcome (infants; 300 mg/day of elemental magnesium, Brazil): did not find any effect on perinatal composite outcome
preterm birth, RR (infants; metanalysis of six RCT's, 3068 pregnant women): 0.58
magnesium blood levels ([2]; 345 mg/day): enough to keep magnesium levels stable
tolerability (supplementation studies, 184-500 mg/day): well-tolerated
rate of pregnancy-induced hypertension (pregnant women; Angola and China studies combined, 201 participants (vs. 21% placebo)): 4%
rate of edema (pregnant women; Angola study (vs. 58%)): 24%
